The values that follow come from patent US5296596A, “Hexahydroazepine derivatives, a process for their preparation” (ELF SANOFI, priority 1990, dated 1994).

One may read the IC50 as the concentration that gives 50% inhibition. Lower therefore signals greater potency in that assay.

Assay [1] deals with sigma receptors. The experiment in a line: In vivo displacement of 3H-(+)-3-PPP at the cerebral level in mice. From the text: (§1) These tests have been carried out in vitro on rat cerebral membranes using as ligands either ^3 H-(+)-3 PPP according to Largent et al., J. Phamacol. […] Acad. Sci. USA, 1986, 83, 8784-8788 and in vivo in mice with the ligand ^3 H-3 PPP according to B. Kenneth Koe et al., European J. Pharmacol., 1989, 161, 263-266.
Background: Loss of bound radioactivity is the signal in a displacement assay; it reports binding, not function.

In assay [2] the target is T1, sigma receptors (Rattus norvegicus, UniProt Q9R0C9).
T1 construct: in vitro on rat cerebral membranes; from tissue; host or cells: rat cerebral membranes
The experiment in a line: biochemical. The settings on record: binding in vitro, ligand (+)-3-PPP, rat cerebral membranes.
Source text: as §1

For assay [3], the target named is sigma receptors. As to the kind of experiment: Binding in vitro on rat cerebral membranes, ligand 3H-DTG.
Source text: as §1

For assay [4], the system named is sigma receptors. As to the kind of experiment: Sigma receptor activity/selectivity (test not specified). It is filed as binding. The following applies: from Table I, versus haloperidol.
The target of assay [5] is T2, dopaminergic receptor(s) (Rattus norvegicus, UniProt P61169).
T2 construct: from tissue; host or cells: rat brain, probably striatum (inferred from the cited methods)
As to the kind of experiment: biochemical. The following applies: binding in vitro, ligand spiroperidol.

Assay [6] has as its system hyperactivity induced by d-amphetamine. The experiment in a line: Antagonism of hyperactivity induced in mice by d-amphetamine. The following applies: predictive test for antipsychotic activity. In kind it is in vivo.
The target of assay [7] is TCP. The experiment in a line: Binding in vitro, TCP (thienylcyclohexylpiperidine). The following applies: ligand TCP.

T2 sequence (P61169 whole entry): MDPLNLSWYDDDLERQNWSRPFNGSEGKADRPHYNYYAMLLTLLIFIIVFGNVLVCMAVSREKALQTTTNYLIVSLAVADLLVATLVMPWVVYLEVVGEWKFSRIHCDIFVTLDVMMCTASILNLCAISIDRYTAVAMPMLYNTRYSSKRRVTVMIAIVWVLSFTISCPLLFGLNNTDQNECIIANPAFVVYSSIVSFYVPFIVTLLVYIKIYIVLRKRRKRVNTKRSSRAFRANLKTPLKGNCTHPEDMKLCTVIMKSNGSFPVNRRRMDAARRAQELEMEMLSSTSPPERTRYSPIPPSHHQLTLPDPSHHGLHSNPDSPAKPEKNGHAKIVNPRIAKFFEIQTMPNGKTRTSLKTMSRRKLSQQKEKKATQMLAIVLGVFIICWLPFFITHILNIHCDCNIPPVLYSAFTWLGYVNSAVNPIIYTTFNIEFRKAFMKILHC
T1 sequence (Q9R0C9 whole entry): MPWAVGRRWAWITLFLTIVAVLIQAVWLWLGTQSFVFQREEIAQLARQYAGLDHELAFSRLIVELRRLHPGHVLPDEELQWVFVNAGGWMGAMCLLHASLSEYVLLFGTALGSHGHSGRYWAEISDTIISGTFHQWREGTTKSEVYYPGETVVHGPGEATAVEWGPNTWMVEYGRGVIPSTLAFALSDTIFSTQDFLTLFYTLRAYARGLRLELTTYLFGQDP

`Cl.Clc1cc(/C=C\CN2CCCCCC2)ccc1C1CCCCC1` [Example 2, cis-3-(Hexahydroazepin-1-yl)-1-(3-chloro-4-cyclohexylphenyl)-1-propene hydrochloride]: the “displacement of the ligand (+)-3PPP, at the cerebral level” value in assay [1] is recorded as “active”. For the same compound, the IC50 is 8 nM in assay [2], 10 nM in assay [3], 10 µM in assay [5] and above 10 µM in assay [7]. The “sigma impact compared with haloperidol” value in assay [4] is “superior and/or more selective sigma impact than that of haloperidol”. Also, in assay [6], the “hyperactivity induced by d-amphetamine” value is listed as “active”.
